A short description of data set [1]: Plasma stability in human plasma, HPLC. It counts as in vitro ADME. To be noted: 300 μM, 37° C., up to 7 days. The procedure:
(§1) Compound N-Ac-Cys-AMA-10 and methyl phenyl sulfone (used as a standard material) were dissolved in DMSO to make a concentration of 30 mM. Then, each of human plasma (Biochemed 752PR—SC-PMG) and mouse plasma (Biochemed 029-APSC-MP) were mixed with the N-Ac-Cys-AMA-10 and MPS to make a final concentration of N-Ac-Cys-AMA-10 and methyl phenyl sulfone 300 μM. The resulting plasma mixtures were incubated in a water bath at 37° C. Aliquots were taken before the reaction and on 1 day, 2 days, 4 days, and 7 days after the reaction, wherein each aliquot was 200 μL. To complete the reaction, a two-fold volume of acetonitrile was added, followed by brief vortexing, and centrifugation for plasma protein precipitation. Each supernatant obtained after centrifugation was collected and analyzed by HPLC.

Data set [2] in a line: Plasma stability in mouse plasma, HPLC. It counts as in vitro ADME. To be noted: 300 μM, 37° C., up to 7 days. The procedure: as §1
The nature of data set [3]: Relative reaction rate with N-Ac-cysteine (LC/MS). It counts as physicochemical. To be noted: with N-acetyl-L-cysteine in PBS buffer/DMSO, 1 hour, room temperature; relative to Reference A = 1. The procedure:
To a homogeneous solutions of ‘reference A’, PyrMPS-1, and mMPS-4 (10 stock solution 10 mmol) in PBS buffer (870 μL) and DMSO (90 μL) was added N-acetyl-L-cysteine (10 stock solution 10 mmol) and stirred for 1 hour at room temperature. The resulting samples were checked for reaction rate using LC/MS.

`C#CCOCCOCCOCCNC(=O)c1cc(C(=O)CC(SC[C@H](NC(C)=O)C(=O)O)C(N)=O)cc(C(=O)NCCOCCOCCOCC#C)c1` (some centres unmarked) [N-Ac-Cys-AMA-10]: the “stability in human plasma” value in data set [1] was “high stability”. Also, the “stability in mouse plasma” value in data set [2] was “high stability”.
For the compound `Cc1ccc(S(=O)(=O)CCC(=O)c2ccc(C(=O)NCCOCCOCCOCCOCCOCCN=[N+]=[N-])cc2)cc1` [Reference A, reference compound], in data set [3], the Relative reaction rate came to 1 folds.
Still for that read-out and setting: to `COC(=O)c1cc(C(=O)CCS(=O)(=O)c2ccc(C)cc2)cc(C(=O)NCCOCCOCCOCCOCCOCCN=[N+]=[N-])c1` [mMPS-4] belongs “Increase 7 folds”.
On to `Cc1ccc(S(=O)(=O)CCC(=O)c2cncc(C(=O)NCCOCCOCCOCCOCCOCCN=[N+]=[N-])c2)cc1` [pyrMSP-1], for which, in data set [3], the Relative reaction rate result is “Increase 11.5 folds”.

The values are drawn from US20230039858A1, “COMPOSITIONS AND METHODS RELATED TO MOLECULAR CONJUGATION” (IntoCell, Inc., priority 2019, published 2023).
